According to patent EP4722219A1 (Gan & Lee Pharmaceuticals Co., Ltd., priority 2023, dated 2024):

Key:
T-47D cells = test: Inhibition of cell proliferation in T-47D cells (CCK-8); format: cell-based; conditions: 6 days treatment, CCK-8 cell viability
Procedure: Test Example 2 Inhibitory effect of PROTAC compounds provided by the present invention on cell proliferation in T-47D cells
The complete culture medium required for T-47D cells is 1640 (ATCC, Product number: A10491-01) basal culture medium containing 10% fetal bovine serum. T-47D cells were seeded in 96-well plates at a density of 3,000 cells/well, and different concentrations of PROTAC compounds 1-55 provided in the examples of the present invention and positive control sample ARV-471 (source: Inokai) were prepared to treat the cells and incubated at 37 °C, 5% CO2 cell culture incubator for 6 days. According to the manufacturer's instructions, cell viability was detected using a CCK-8 kit (Beyotime, Product number: C0040). The IC50 of each compound after treating for 6 days was calculated using GraphPadPrism software based on the inhibition rate. Table 2 Inhibition IC50 value of T-47D cell proliferation by PROTAC compounds provided by the present invention and positive control sample

MCF-7 cells = test: Inhibition of cell proliferation in MCF-7 cells (CCK-8); format: cell-based; conditions: MCF-7 cell proliferation, 6 days treatment
Procedure: Test Example 3 Inhibitory effect of PROTAC compounds provided by the present invention on cell proliferation in MCF-7 cells
The complete culture medium required for MCF-7 cells (source ATCC) is DMEM (gibco, Product number: 11995-065) basal culture medium containing 10% fetal bovine serum. MCF-7 cells were seeded in 96-well plates at a density of 800 cells/well, and different concentrations of PROTAC compounds 1-55 provided in the examples of the present invention and positive control sample ARV-471 (source: Inokai) were prepared to treat the cells and incubated at 37 °C, 5% CO2 cell culture incubator for 6 days. According to the manufacturer's instructions, cell viability was detected using a CCK-8 kit (Beyotime, Product number: C0040). The IC50 of each PROTAC compound after treating for 6 days was calculated using GraphPadPrism software based on the inhibition rate. Table 3 Inhibition IC50 value of MCF-7 cell proliferation by PROTAC compounds of the present invention and positive control sample

Row | SMILES | IC50 (T-47D cells) [nM] | IC50 (MCF-7 cells) [nM] | IC50 (T-47D cells; Homo sapiens, T47D, 144 h) [nM] | IC50 (MCF-7 cells; Homo sapiens, MCF7, 144 h) [nM]
1 | O=C1CC[C@H](NC(=O)c2cc3c(cc2F)OCC32CCN(CC3CCC(OC4CCN(c5ccc([C@@H]6c7ccc(O)cc7CC[C@@H]6c6ccccc6)cc5)CC4)CC3)CC2)C(=O)N1 (stereo partly drawn) [ER-P-83, N-((S)-2,6-dioxopiperidin-3-yl)-6-fluoro-1'-(((1S,4R)-4-((1-(4-((1R,2S)-6-hydroxy-2-phenyl-1,2,3,4-tetrahydronaphthalen-1-yl)phenyl)piperidin-4-yl)oxy)cyclohexyl)methyl)-2H-spiro[benzofuran-3,4'-piperidine]-5-carboxamide] | 138 | 4330 |  | 
2 | Cn1c(=O)n(C2CCC(=O)NC2=O)c2cc3c(cc21)C1(CCN(C(=O)CN2CCC4(CCN(c5ccc([C@@H]6c7ccc(O)cc7CC[C@@H]6c6ccccc6)cc5)CC4)C2)CC1)CO3 (stereo partly drawn) [ER-P-69, 3-(1'-(2-(8-(4-((1R,2S)-6-hydroxy-2-phenyl-1,2,3,4-tetrahydronaphthalen-1-yl)phenyl)-2,8-diazaspiro[4.5]decan-2-yl)acetyl)-1-methyl-2-oxo-1,2-dihydro-3H,6H-spiro[benzofuro[5,6-d]imidazole-7,4'-piperidin]-3-yl)piperidine-2,6-dione] |  |  | 0.28 | 1.43
3 | COc1cc2c(cc1C(=O)NC1CCC(=O)NC1=O)C1(CCN(CC3CCC(OC4CCN(c5ccc(C6c7ccc(O)cc7CCC6c6ccccc6)cc5)CC4)CC3)CC1)CO2 [ER-P-91, N-((S)-2,6-dioxopiperidin-3-yl)-1'-(((1S,4R)-4-((1-(4-((1R,2S)-6-hydroxy-2-phenyl-1,2,3,4-tetrahydronaphthalen-1-yl)phenyl)piperidin-4-yl)oxy)cyclohexyl)methyl)-6-methoxy-2H-spiro[benzofuran-3,4'-piperidine]-5-carboxamide] |  |  | 150 | 7940
4 | O=C1CCC(N2Cc3c(ccc4c3OCC43CCC4(CCN(C[C@H]5CC[C@@H](OC6CCN(c7ccc([C@@H]8c9ccc(O)cc9CC[C@@H]8c8ccccc8)cc7)CC6)CC5)CC4)CC3)C2=O)C(=O)N1 (stereo partly drawn) [ER-P-79, 3-(1"-(((1S,4S)-4-((1-(4-((1R,2S)-6-hydroxy-2-phenyl-1,2,3,4-tetrahydronaphthalen-1-yl)phenyl)piperidin-4-yl)oxy)cyclohexyl)methyl)-6-oxo-6,8-dihydro-2H,7H-dispiro[furo[2,3-e]isoindole-3,1'-cyclohexane-4',4"-piperidin]-7-yl)piperidine-2,6-dione] | 8.46 | 63.4 |  | 
5 | Cn1c(=O)n(C2CCC(=O)NC2=O)c2ccc3c(c21)OCC31CCN(C2CCN(C3CCN(c4ccc([C@@H]5c6ccc(O)cc6CC[C@@H]5c5ccccc5)cc4)CC3)CC2)CC1 (some centres unmarked) |  |  | 1.71 | 11.7
6 | Cn1c(=O)n(C2CCC(=O)NC2=O)c2cc3c(cc21)OC1(CC3)CCN(CC2CC(OC3CCN(c4ccc([C@@H]5c6ccc(O)cc6CC[C@@H]5c5ccccc5)cc4)CC3)C2)CC1 (stereo partly drawn) [ER-P-81, 3-(1'-(((1S,3s)-3-((1-(4-((1R,2S)-6-hydroxy-2-phenyl-1,2,3,4-tetrahydronaphthalen-1-yl)phenyl)piperidin-4-yl)oxy)cyclobutyl)methyl)-3-methyl-2-oxo-2,3,7,8-tetrahydro-1H-spiro[chromeno[6,7-d]imidazole-6,4'-piperidin]-1-yl)piperidine-2,6-dione] | 2.57 | 1.6 |  | 
7 | O=C1CCC(N2Cc3c(ccc4c3OCC43CCC4(CC3)CN(CC3CCC(OC5CCN(c6ccc([C@@H]7c8ccc(O)cc8CC[C@@H]7c7ccccc7)cc6)CC5)CC3)C4)C2=O)C(=O)N1 (stereo partly drawn) [ER-P-78, 3-(1-(((1S,4S)-4-((1-(4-((1R,2S)-6-hydroxy-2-phenyl-1,2,3,4-tetrahydronaphthalen-1-yl)phenyl)piperidin-4-yl)oxy)cyclohexyl)methyl)-6"-oxo-6'',8''-dihydro-2"H,7"H-dipyrine[azetidine-3,1'-cyclohexane-4',3"-furo[2,3-e]isoindol]-7"-yl)piperidine-2,6-dione] | 5.8 | 737 |  | 
